Measurements taken from patent US20260069581A1, “METHODS AND COMPOSITIONS FOR CANCER THERAPY” (OHIO STATE INNOVATION FOUNDATION, priority 2020, published 2026).

Assays:
[1] = In vivo MOLM13 xenograft study, toxicities and weight; parameters: species or system NCG mice; details: over the course of the study (FIG. 11B)
From the text: FIG. 11A show H&E images of tissues obtained from MOLM13 xenograft mice that with the magnification and treatments as indicated in the figure. The images were representative of 3 different fields. […] FIG. 11B show weight change data of MOLM13 xenograft mice in response to different treatments.
In vivo MOLM13 xenograft study. All experiments were approved by the OSU Institutional Animal Care and Use Committee. Male NOD-Prkdc^em26cd52Il2rg^em26cd22/NjuCrl (NCG) mice (RRID:IMSR_CRL:572) (aged 6-8 weeks) were obtained from Charles River Laboratory. Mice were group-housed under conditions of constant photoperiod (12-hour light/12-hour dark), temperature, and humidity with adlibitum access to water and irradiated standard pelleted chow. […] luciferase-tagged MOLM13 cells were injected via tail vein into NCG mice. On day 5 post-engraftment, mice were randomized to receive placebo (vehicle; Karyopharm Therapeutics) once daily, 100 mg/kg of KPT-9274 (Karyopharm Therapeutics) once daily, 20 mg/kg AR-42 every another day and the combination of KPT-9274 and AR-42 via oral gavage. Overall survival was the primary end point for the majority of the mice. […] Mice were monitored by animal technicians who were blinded to the treatment groups and determined when mice met early removal criteria (20% weight loss, lethargy, hunching, and poor body condition). […]

[2] = in vivo; cited from earlier work
[3] = tested on: shRNA-stable Kasumi-1 and MOLM13 cells; test: CFU serial replating assay of shRNA-stable cells with KPT-9274; type: cell-based, human
From the text: FIGS. 2A-2M show show representative data for genetic depletion of HDAC8 or SIRT6 increases vulnerability of AML cell lines to KPT-9274 treatment. FIGS. 2A-2D show data for knockout efficiency of CDS- and 3′UTR-targeting shRNAs in MOLM13 and Kasumi-1 cells as assessed with Western blotting (FIGS. 2A, 2D) with GAPDH as a loading control. Densitometric quantification of protein band intensity is shown (n=2) in FIGS. 2B, 2E. FIGS. 2E-2H show representative data for depletion of HDAC8 or SIRT6 (as indicated in graphs) and sensitization of AML cell lines to KPT-9274 treatment. Dose-response curves of shRNA-stable MOLM13 and Kasumi-1 cells for 24-hour and 48-hour treatments are plotted. Cell viability was measured with MTS. […] Scrambled or gene-targeting shRNA-stable MOLM13 or Kasumi-1 cells were treated with IC20 dose of KPT-9274 for 48 hour and stained with Annexin/PI for flow cytometry analysis. Data are shown as mean±SEM of % population from duplicates. FIGS. 2K-2L show representative data that KPT-9274 attenuates AML self-renewal and induces myeloid differentiation in HDAC8 or SIRT6-depleted cells. Quantification of the number of colonies formed by shRNA-stable Kasumi-1 and MOLM13 cells in the presence or absence of KPT-9274 in CFU assays. Indicated number of cells were seeded into Methocult and colonies were counted and replated by a double-blind approach after 7 days. Results are shown as mean±SEM of duplicates. *p<0.05. **p<0.01. […] For each condition, images were randomly taken from 6-12 fields of view. Scale bar=50 μm.
Colony-forming unit (CFU) assays. Age-matched cryopreserved primary cells from bone marrow and apheresis of AML patients with various co-mutations and CD34^+ healthy bone marrow cells were acquired from Ohio State University Comprehensive Cancer Center Leukemia Tissue Bank. […] Formed colonies were counted blindly after 7-14 days and re-plated at 10,000 cells/well. The images of colonies were captured with Echo revolving microscope. The images of Giemsa staining of cytospin preparations were acquired by CX43 Olympus inverted microscope. […]

Row | SMILES | weight loss [1] | tolerability of dose [2] | colony formation and long-term self-renewal ([3]; HDAC8 or SIRT6-depleted MOLM13 and Kasumi-1 cells) | cell differentiation (Giemsa staining of cytospin preparations) ([3]; KPT-9274 with depletion of HDAC8 or SIRT6, cells derived from CFU assays) | colony numbers vs vehicle control ([3]; scramble groups, sublethal doses of KPT-9274)
1 | CC(C)[C@H](C(=O)Nc1ccc(C(=O)NO)cc1)c1ccccc1 [AR-42, (S)—N-Hydroxy-4-(3-methyl-2-phenylbutanamido)benzamide] | did not observe any noticeable weight loss | tolerated | – | – | –
2 | Nc1ccc(/C=C/C(=O)NCc2cc3cc(-c4ccc(C(=O)N5CCC(F)(F)CC5)cc4)cc(-c4ccc(F)cc4)c3o2)cn1 [KPT-9274, (E)-3-(6-aminopyridin-3-yl)-N-[[5-[4-(4,4-difluoropiperidine-1-carbonyl)phenyl]-7-(4-fluorophenyl)-1-benzofuran-2-yl]methyl]prop-2-enamide] | – | – | suppressed colony formation | cooperatively differentiated AML cells | comparable
